This is an account of results in US20190248834A1, “ENDOMORPHIN-2, TETRAPEPTIDE DERIVATIVES THEREOF, AND USES THEREOF” (priority 2016, published 2019).

Non-standard residues stand in square brackets, D forms with d. pGlu = O=C1CC[C@@H](C(=O)O)N1

What all share (assay type): in vivo, human
For test [1], the system named is dental pain after filling. In words: Example 27: analgesic effect on dental pain, applied to tooth and gum. The procedure:
A subject, experienced substantial pain in an upper left retro-molar that started 3 hours after having a dental filling procedure done on the tooth. The pain became more intense over the ensuing hours, at which time they applied to the tooth and gum using a cotton tipped applicator a composition containing 1% (w/v) of N-Ac-Tyr-Pro-Phe-Phe-NH2 (SEQ ID NO: 23) in WEP442. […] Re-application of the composition provided the same relief for the same duration.

The subject of test [2] is carpal tunnel syndrome. The test can be described thus: Example 78: analgesic effect on carpal tunnel syndrome, topical. Here is the method: A subject, and a computer operator, presented with symptoms of carpal tunnel syndrome, i.e. wrist pain and tingling sensations of the palm and fingers. […] Relief occurred within 3 minutes of topical application and lasted for 2-4 hours.

The test system of test [3] is painful tendonitis. The test can be described thus: Example 50: topical treatment of painful tendonitis of right wrist and right thumb. The settings on record: 1% (w/v) in WEP442, topical. The text has this:
A subject with painful tendonitis after playing tennis topically applied a composition containing 1% (w/v) of N-Pg-Tyr-Pro-Phe-Phe-NH2 (SEQ ID NO: 44) in WEP442 to the right thumb and to the entire wrist.

Regarding `CC(=O)N[C@@H](Cc1ccc(O)cc1)C(=O)N1CCC[C@H]1C(=O)N[C@@H](Cc1ccccc1)C(=O)N[C@@H](Cc1ccccc1)C(N)=O` [N-Ac-Tyr-Pro-Phe-Phe-NH2], in test [1] (1% (w/v) in WEP442), the “duration of pain relief” value is “about 3 hours” and the “time to pain relief” value was not above 1 min. Further, in test [1] (1% (w/v) in WEP442, applied to tooth and gum), the pain relief result was “pain ceased completely”.
On to “N-Pg-Tyr-Pro-Phe-Phe-NH2 ([pGlu]YPFF-NH2; SMILES NC(=O)[C@H](Cc1ccccc1)NC(=O)[C@H](Cc1ccccc1)NC(=O)[C@@H]1CCCN1C(=O)[C@H](Cc1ccc(O)cc1)NC(=O)[C@@H]1CCC(=O)N1)”, for which, in test [2] (0.5% (w/v) in WEP442, topical), the duration of relief fell in the range of 2 to 4 h and the time to relief was not above 3 min. The relief of symptoms result in test [2] (0.5% (w/v) in WEP442, topical several times during working hours) was “substantial relief of the symptoms”. Besides, in test [3], the pain relief result was “all pain and discomfort from any hand movements were gone”; the “time to pain relief” value fell in the range of 5 to 10 min; the “time without return of pain (follow up period)” value is not below 24 h.
